The RepoRT retention time repository (doi:10.1016/j.chroma.2019.01.023)

Test: HILIC, Merck SeQuant ZIC-pHILIC, 150 × 2.1 mm, 5 µm, 40 °C, 0.3 mL/min, estimated dead time 1.1 min; A: acetonitrile; B: water + 2.8 mM ammonium formate, pH 9; gradient (min/%B) 0/5 1/5 10/51 13/51 13.1/5 20/5
Details: stereoisomer not certain

Structure (SMILES) | LC retention time [min]
Nc1nc2c(c(=O)[nH]1)N=C(CNc1ccc(C(=O)NC(CCC(=O)O)C(=O)O)cc1)CN2 (stereo not drawn) [DIHYDROFOLATE] | 8.81
Nc1ncnc2c1ncn2C1OC(COP(=O)(O)OP(=O)(O)OC2OC(CO)C(O)C(O)C2O)C(O)C1O (stereo not drawn) [ADP-GLUCOSE] | 9.12
C=CC(=O)[O-] [2-PROPENOATE] | 2.13
NCCP(=O)(O)O [(2-AMINOETHYL)PHOSPHONATE] | 9.6
CS(=N)(=O)CCC(N)C(=O)O (stereo not drawn) [METHIONINE SULFOXIMINE] | 9.03
O=c1[nH]cnc2c1ncn2C1OC(COP(=O)(O)OP(=O)(O)OP(=O)(O)O)C(O)C1O (stereo not drawn) [INOSINE TRIPHOSPHATE] | 11
Nc1nc2c(ncn2C2CC(O)C(COP(=O)(O)OP(=O)(O)O)O2)c(=O)[nH]1 (stereo not drawn) [DGDP] | 10.2
NC(CS(=O)O)C(=O)O (stereo not drawn) [3-SULFINOALANINE] | 8.64
N[C@H](C(=O)O)c1ccc(O)cc1 [4-HYDROXY-L-PHENYLGLYCINE] | 9.02
Nc1ncnc2c1ncn2C1OC(COP(=O)(O)OP(=O)(O)OCC2OC(O)C(O)C2O)C(O)C1O (stereo not drawn) [ADENOSINE DIPHOSPHATE RIBOSE] | 9.14
OCC1OC(OCC2OC(O)(CO)C(O)C2O)C(O)C(O)C1O (stereo not drawn) [PALATINOSE] | 8.8
C[C@@H](N)C(=O)O [D-ALANINE] | 5.74
CCCCCCCCC(=O)[O-] [NONANOATE] | 5.16
Nc1ccn(C2OC(COP(=O)(O)OP(=O)(O)OP(=O)(O)O)C(O)C2O)c(=O)n1 (stereo not drawn) [CYTIDINE TRIPHOSPHATE] | 11.1
CN(C)C(N)=NCCCC(N)C(=O)O (stereo not drawn) [N,N-DIMETHYL-ARGININE] | 2.02
O=C(O)C(O)CO (stereo not drawn) [GLYCERATE] | 7.98
OC1COC(O)C(O)C1O (stereo not drawn) [XYLOSE] | 8.34
O=P(O)(O)OCC(O)CO (stereo not drawn) [GLYCEROL 3-PHOSPHATE] | 8.79
NC(CCC(=O)O)C(=O)O (stereo not drawn) [GLUTAMATE] | 8.69

The remaining lines, values ahead:

LC retention time [min] | Structure (SMILES)
5.17 | O=C(O)C(=O)Cc1c[nH]c2ccccc12 [INDOLE-3-PYRUVATE]
10.1 | O=C(O)C(O)COP(=O)(O)O (stereo not drawn) [3-PHOSPHOGLYCERATE]
9.28 | NCC(=O)CCC(=O)O [5-AMINOLEVULINATE]
1.47 | COC(=O)c1ccc(O)c(OC)c1 [METHYL VANILLATE]
1.91 | O=C(O)c1ccccc1O [SALICYLATE]
10.3 | O=C(O)C(O)C(O)C(O)C(O)COP(=O)(O)O (stereo not drawn) [6-PHOSPHOGLUCONATE]
8.8 | NCCS(=O)O [HYPOTAURINE]
1.41 | O=C(O)c1ccccc1 [BENZOATE]
9.91 | NC(C(=O)O)C(O)C(O)C(O)CO (stereo not drawn) [GLUCOSAMINATE]
10.3 | NC(CCSCC(N)C(=O)O)C(=O)O (stereo not drawn) [CYSTATHIONINE]
10.5 | NC(CCCC(N)C(=O)O)C(=O)O (stereo not drawn) [DIAMINOPIMELATE]
8.52 | C=C(C)CCOP(=O)(O)OP(=O)(O)O [ISOPENTENYL PYROPHOSPHATE]
10.1 | OCC1OC(OCC2OC(OCC3OC(OC4(CO)OC(CO)C(O)C4O)C(O)C(O)C3O)C(O)C(O)C2O)C(O)C(O)C1O (stereo not drawn) [STACHYOSE]
8.32 | CC(C)=CCCC(C)=CCOP(=O)(O)OP(=O)(O)O [GERANYL-PP]
6.48 | CCOC(=O)CC(=O)[O-] [MONOETHYLMALONATE]
2.03 | CNCC(O)c1ccc(O)c(O)c1 (stereo not drawn) [EPINEPHRINE]
8.33 | CC(=O)NC1C(O)CC(O)(C(=O)O)OC1C(O)C(O)CO (stereo not drawn) [N-ACETYLNEURAMINATE]
8.67 | O=c1ccn(C2OC(COP(=O)(O)O)C(O)C2O)c(=O)[nH]1 (stereo not drawn) [URIDINE MONOPHOSPHATE]
10.9 | O=P(O)(O)OCC1OC(O)(COP(=O)(O)O)C(O)C1O (stereo not drawn) [FRUCTOSE BISPHOSPHATE]
8.06 | Nc1ccn(C2OC(CO)C3OP(=O)(O)OC32)c(=O)n1 (stereo not drawn) [CYTIDINE 2',3'-CYCLIC PHOSPHATE]
10.5 | O=c1ccn(C2CC(O)C(COP(=O)(O)OP(=O)(O)OP(=O)(O)O)O2)c(=O)[nH]1 (stereo not drawn) [DEOXYURIDINE TRIPHOSPHATE]
8.76 | CC(=O)NC(CCCCN)C(=O)O (stereo not drawn) [N-ALPHA-ACETYLLYSINE]
9.23 | NCCOP(=O)(O)O [ETHANOLAMINE PHOSPHATE]
9.19 | O=P(O)(O)OCC1OC(O)C(O)C1O [D-RIBOSE 5-PHOSPHATE]
